Converted amounts (≈) assume the structure as drawn. Read-outs that look alike come from different tables or passages of the source.
Experiments:
[1] = tested on: Agrobacterium biosensor cells; assay: Minimal bactericidal concentration (MBC); format: cell-based, Agrobacterium tumefaciens; conditions: Agrobacterium; 99.9% reduction of 10^5 CFU/ml after 36 h at 30°C; read-out: MBC
Method: (§1) Aside from the effect of QSI on QS regulation, the toxicity of these compounds was tested on bacterial cells by measuring two parameters: the minimal inhibitory concentration (MIC) and minimal bactericidal concentration (MBC). MIC, which is the lowest concentration of QSI (µg/ml) inhibiting any visible culture after 36 h of incubation at 30°C, was estimated by culturing 10^5 CFU/ml of the Agrobacterium biosensor cells in the presence of different concentrations of the QSI. MBC, which is the lowest concentration of QSI (µg/ml) that results in a 99.9% reduction of the initial bacterial population (10^5 CFU/ml) after 36 h of incubation at 30°C in the presence of different concentrations of QSI, was estimated by plating 100 µL of the Agrobacterium cultures on agar LBm plates. After an incubation of 48 h at 30°C, CFU were counted and the MBC values were calculated.

[2] = tested on: Agrobacterium biosensor cells; assay: Minimal inhibitory concentration (MIC); format: cell-based, Agrobacterium tumefaciens; conditions: 10^5 CFU/ml, 36 h at 30°C
Method: as §1

[3] = tested on: A. tumefaciens NT1(pZLR4) traG-lacZ reporter fusion; assay: QSI activity on A. tumefaciens AHL-bioindicator (traG-lacZ β-galactosidase); format: cell-based, Agrobacterium tumefaciens; conditions: for inhibition at 100 µg/mL: Agrobacterium tumefaciens, read-out: inhibition (%) at 100 µg/ml; for QSI hit in library screening: second screening: compounds at 5 µg/ml, C8-HSL 10 nM, A. tumefaciens biosensor
Method: Two bacterial QS-signal biosensors were used. Chromobacterium violaceum CV026 [41] was grown in Luria-Bertani modified (LBm) medium, in which the NaCl concentration was 5 g/l instead of 10 g/l. Agrobacterium tumefaciens NT1(pZLR4) was grown in AB minimal medium supplemented with mannitol (0.2%). After supplementation with appropriate AHL, each of the QS-biosensors expresses a reporting activity, which is the production of the pigment violacein in C. violaceum CV026 and that of β-galactosidase from the transcriptional fusion traG::lacZ in A. tumefaciens NT1(pZLR4).
When the screening was performed, the chemical library of the Institut de Chimie des Substances Naturelles (ICSN, Gif-sur-Yvette, France) contained more than 3500 synthetic and natural compounds, which were individually dissolved in dimethylsulfoxide (DMSO) at 1mg/ml and stored in 96 microwell plates. A first screening was performed by mixing biosensor CV026 with the AHL hexanoylhomoserine lactone (C6-HSL) at 0.5 µM and the tested compounds at 50 µg/ml. Final volume was adjusted to 100 µl with a synthetic medium (10% LBm and 0.4% sucrose). After 24 hours of incubation at 30°C, the presence or absence of violacein pigment was quoted by visual reading. […] Final volume was adjusted to 100 µl by the addition of AB minimal medium supplemented with mannitol (0.2%) and TY medium (10%). After 4 hours of incubation at 30°C, β-galactosidase activity was measured in A. tumefaciens cultures as previously described. In the two screenings, 4-nitropyridine-N-oxide (4-NPO) was used as a QSI reference. […]

P. aeruginosa = assay: Growth kinetics of P. aeruginosa in the presence of QSIs; format: cell-based, Pseudomonas aeruginosa; conditions: QSI at 0.5 mg/ml, OD600 and CFU at 8 and 18 hour
Method: (§2) Figure 5 QSIs modulated QS-signal accumulation in P. aeruginosa. Growth kinetics (n = 6) of P. aeruginosa was measured (OD600) in the presence of the QSIs (estradiol, estrone, estriol, hordenine and 4-NPO) at 0.5 mg/ml using DMSO as a negative control. Cell counts were assessed (CFU/ml) at 8- and 18-hour, and C4-HSL and OC12-HSL concentration (µM) were determined in the bacterial cultures at 18-hour. Statistically different values (Student's t test with α = 0.01) are noted by asterisks.
(§3) QS gene transcription in P. aeruginosa PAO1 was monitored using PAO1 strains carrying various gene promoters fused to a lacZ reporter gene, as described in Vandeputte et al., 2010 and Table 1. PAO1 reporter strains were prepared according to Vandeputte et al.. Briefly, 18-hours-old liquid cultures (50 µl) were diluted in order to obtain a starting OD600 nm comprised between 0.02 and 0.03 in fresh LB medium supplemented with 50 mM MOPS pH 7.0 (1 ml), carbenicillin (300 µg/ml) and 10 µl of the QSIs to be tested (OD were measured using a SpectraMax M2 device from Molecular Devices). Test and control QSIs were diluted in 100% DMSO (resulting after addition to the growth medium in a 1% final concentration of DMSO). Cultures were incubated for 18 hours at 37°C with agitation. After incubation, cell densities were assessed spectrophotometrically (OD600 nm) and β-galactosidase assays were performed using the substrate o-nitrophenyl-β-D-galactopyranoside as described previously, [29]. Promoterless-lacZ fusions were used as controls. AHLs were quantified as described in Vandeputte et al.. All tests were performed in quintuplicates and three biological repetitions. The statistical significance of each test was evaluated by conducting Student's t tests and two-way ANOVA combined with the Tukey post-analysis test using the GraphPad Prism software and p values≤0.01 were considered significant.

[4] = tested on: QS-signal accumulation in P. aeruginosa; assay: AHL (C4-HSL, OC12-HSL) quantification in P. aeruginosa cultures by mass spectrometry; format: cell-based, Pseudomonas aeruginosa; conditions: QSI at 0.5 mg/ml, 18-hour
Method: as §2, §3

[5] = tested on: QS-regulated Ti-plasmid transfer in A. tumefaciens; assay: QS-regulated Ti-plasmid transfer (conjugation) assay; format: cell-based, Agrobacterium tumefaciens; conditions: QSI at 0.1 mg/ml, OC8-HSL 500 pM, 72 h at 24°C
Method: Figure 4 In vitro Ti plasmid transfer frequency in Agrobacterium. The Ti plasmid transfer frequencies were measured in the presence of QSI (A) and the four 1248-diastereoisomeres (B) at 0.1 mg/ml. Histograms represent the cell density of transconjugants (CFU/ml), while black diamonds and squares, those of the donor and recipient strains, respectively. Measurements were performed in quadruplicate and the experiment was repeated twice. The cell densities of transconjugants in the presence of QSI were compared to that of the control in the presence of DMSO with a Mann and Whitney test (α = 0.05). Statistically different values are noted by asterisks.
In A. tumefaciens, the transfer of the Ti-plasmid from a donor cell to a recipient one is controlled by QS. QSI were evaluated for their capacity to reduce plasmid transfer frequency in Agrobacterium. In the plasmid transfer assay, two modified Agrobacterium strains were used: a Ti-plasmid donor, which requires exogenous AHL to transfer a kanamycin-resistant (Km^r) Ti-plasmid, and a rifampicin-resistant (Rif^r) recipient strain, which is free of Ti-plasmid. Overnight cultures of the donor and recipient strains were mixed with 500 pM of oxo-octanoylhomoserine lactone (OC8-HSL) and 0.1 mg/ml of QSI in LBm medium. Each combination was repeated 4 times in microwell plates.

Row | Structure (SMILES) | MBC [1] [µg/mL] | MIC ([2]; Agrobacterium, read-out: MIC) [µg/mL] | inhibition at 100 µg/mL [3] [%] | effect on growth of P. aeruginosa (P. aeruginosa) | C4-HSL concentration in cell cultures [4] | OC12-HSL concentration in cell cultures [4] | decrease of plasmid transfer efficiency [5] [fold] | QSI hit in library screening [3] | effect on Ti plasmid transfer frequency (words) [5] | MIC [2]
1 | C[C@@H](NC[C@H]1Cc2ccccc2N1)c1cccc2ccccc12 [(R,R)-1248, (R)-N-((R)-indolin-2-ylmethyl)-1-(naphthalen-1-yl)ethanamine] | 100 (≈ 331 µM) | 100 (≈ 331 µM) | 10 |  |  |  |  |  |  | 
2 | C[C@H](NC[C@H]1Cc2ccccc2N1)c1cccc2ccccc12 [(R,S)-1248, (S)-N-((R)-indolin-2-ylmethyl)-1-(naphthalen-1-yl)ethanamine] | 100 (≈ 331 µM) | 100 (≈ 331 µM) | 0 |  |  |  |  |  |  | 
3 | C[C@@H](NC[C@@H]1Cc2ccccc2N1)c1cccc2ccccc12 [(S,R)-1248, (R)-N-((S)-indolin-2-ylmethyl)-1-(naphthalen-1-yl)ethanamine] | 100 (≈ 331 µM) | 100 (≈ 331 µM) |  |  |  |  |  |  |  | 
4 | C[C@H](NC[C@@H]1Cc2ccccc2N1)c1cccc2ccccc12 [(S,S)-1248, (S)-N-((S)-indolin-2-ylmethyl)-1-(naphthalen-1-yl)ethanamine] | > 100 | 100 (≈ 331 µM) |  |  |  |  |  |  |  | 
5 | O=[N+]([O-])c1cc[n+]([O-])cc1 [Compound 4-NPO, 4-nitropyridine-N-oxide, reference compound] | > 100 | 25 (≈ 178 µM) |  | slightly delayed the growth | reduction | reduction | 10 |  |  | 
6 | CCC12CCCN3CCC4(C(=C(C(=O)OC)C1)Nc1ccccc14)C32 (stereo not drawn) [Compound 14] | > 100 | > 100 | 0 |  |  |  |  | hits |  | 
7 | CC1C2CCC3C4CC=C5CC(N)CCC5(C)C4CCC32CN1C.Cl (stereo not drawn) [Compound 283, 2,3,11a-Trimethyl-2,3,3a,4,5,5a,5b,6,8,9,10,11,11a,11b,12,13-hexadecahydro-1H-2-aza-pentaleno[1,6a-a]phenanthren-9-ylamine hydrochloride] | > 100 | > 100 |  |  |  |  |  | hits |  | 
8 | C=C[C@H]1CN2CC[C@H]1C[C@H]2[C@H](O)c1ccnc2ccc(OC)cc12 [Compound 937] | > 100 | > 100 | 15 |  |  |  |  | hits |  | 
9 | CC(C)CCC[C@@H](C)[C@H]1CCC2C3CC=C4C[C@@H](Cl)CC[C@]4(C)C3CC[C@@]21C (stereo partly drawn) [Compound 1099] | > 100 | 100 (≈ 247 µM) |  |  |  |  |  | hits | significantly reduce the plasmid transfer frequency by one order of magnitude | 
10 | COc1nc([N+](=O)[O-])nn1[C@H]1C[C@H](O)[C@@H](CO)O1 [Compound 1102] | > 100 | > 100 | 0 |  |  |  |  | hits | significantly reduce the plasmid transfer frequency by one order of magnitude | 
11 | CC(NCC1Cc2ccccc2N1)c1cccc2ccccc12 (stereo not drawn) [Compound 1248] | > 100 | > 100 |  |  |  |  |  | hits |  | 
12 | Cc1ccc(S(=O)(=O)CCC(=O)c2ccccc2)cc1 [Compound 1577] | 25 (≈ 86.7 µM) | 3 (≈ 10.4 µM) |  |  |  |  |  | hits | significantly reduce the plasmid transfer frequency by one order of magnitude | 
13 | CC(C)CCC[C@@H](C)[C@H]1CCC2C3CCC4CC(=O)CC[C@]4(C)C3CC[C@@]21C (stereo partly drawn) [Compound 1868] | > 100 | 12.5 (≈ 32.3 µM) | 34 |  |  |  |  | hits |  | 12,5 µg/ml
14 | Cc1cn(COCCSc2ccccc2)c(=O)[nH]c1=O [Compound 1949, 5-Methyl-1-(2-phenylsulfanyl-ethoxymethyl)-1H-pyrimidine-2,4-dione] | > 100 | > 100 | 38 |  |  |  |  | hits |  | 
15 | CN1CCc2c([nH]c3ccccc23)C1 [Compound 3492] | > 100 | > 100 |  |  |  |  |  | hits |  | 
16 | CC/C=C\C[C@H]1C(=O)CC[C@@H]1CC(=O)O [Jasmonic acid, jasmonic acid, reference compound] | > 100 | > 100 |  |  |  |  |  |  |  | 
